From article PMC10714399, “Open Source Antibiotics: Simple Diarylimidazoles Are Potent against Methicillin-Resistant Staphylococcus aureus” (ACS Infectious Diseases, 2023)
In brackets after ≈: the same amount, converted by molar mass. Where a name gives a salt, the structure may show the parent alone. Read-outs that look alike come from different tables or passages of the source.

Experiments:
[1] = test system: Staphylococcus aureus ATCC 43300 MRSA; assay: CO-ADD antibacterial assay (growth inhibition, MIC), MRSA; assay type: cell-based
Method: Hit Confirmation of active compounds by whole cell growth inhibition assays was conducted as an 8-point dose response to determine the Minimum Inhibitory Concentration (MIC), in duplicate (n=2). The inhibition of growth is measured against those microorganisms that […]
Included in the Hit Confirmation were 5 bacteria: Escherichia coli, Klebsiella pneumoniae, Acinetobacter baumannii, Pseudomonas aeruginosa and Staphylococcus aureus, and 2 fungi Candida albicans and Cryptococcus neoformans. […]
Assay Parameters Bacteria Fungi HEK293 Haemolysis […]
Duplicate (n=2) Duplicate (n=2) Duplicate (n=2) Duplicate (n=2)
QC Control MIC: Control MIC: Control CC50: Control HC10:
Non-Binding Non-Binding TC, 384-well Polypropylene
Plates Surface (NBS), Surface (NBS), black wall/clear 384-well and 384-well plate 384-well plate bottom polystyrene 384-
Cation-adjusted Yeast Nitrogen DMEM
Media Mueller Hinton Base supplemented 0.9% NaCl
Hit Confirmation outcomes are detailed in individual Project reports, personalised for each Project Submission for each CO-ADD user.
Please see your data sheet with file extension P0XXX_HC_data.xlsx, for example CO-ADD Project P0100, P0100_HC_data.xlsx
Study: HC_data ID: HC-Procedures & Materials
Date: Last updated June 2018 Confidential Page 3 of 11
(1 picture or pasted object on this page, not shown here)
Samples were provided by the collaborator and stored frozen at -20 °C. Samples were prepared in DMSO and water to a final testing concentration of 32 µg/mL or 20 µM (unless otherwise indicated in the data sheet) and serially diluted 1:2 fold for 8 times. Each sample concentration was prepared in 384-well plates, non-binding surface plate (NBS; Corning 3640) for each bacterial/fungal strain, tissue-culture treated (TC-treated; Corning 3712/3764) black for mammalian cell types and polypropylene 384-well (PP; Corning 3657) for haemolysis assays, all in duplicate (n=2), and keeping the final DMSO concentration to a maximum of 0.5%. All the sample preparation was done using liquid handling robots. […]
detailed in the Data sheet for the individual Project.
All bacteria were cultured in Cation-adjusted Mueller Hinton broth (CAMHB) at 37 °C overnight. A sample of each culture was then diluted 40-fold in fresh broth and incubated at 37 °C for 1.5-3 h. The resultant mid-log phase cultures were diluted (CFU/mL measured by OD600), then added to each well of the compound containing plates, giving a cell density of 5×10^5 CFU/mL and a total volume of 50 µL. All the plates were covered and incubated at 37 °C for 18 h without shaking.
Inhibition of bacterial growth was determined measuring absorbance at 600 nm (OD600), using a Tecan M1000 Pro monochromator plate reader. The percentage of growth inhibition was calculated for each well, using the negative control (media only) and positive control (bacteria without inhibitors) on the same plate as references.
The percentage of growth inhibition was calculated for each well, using the negative control (media only) and positive control (bacteria without inhibitors) on the same plate. The MIC […]
by an inhibition ≥ 80%. In addition, the maximal percentage of growth inhibition is reported as DMax, indicating any compounds with partial activity.
Date: Last updated June 2018 Confidential Page 5 of 11
Material Code Brand/Supplier Cat No.
Compound preparation plate, Polypropylene PP Corning 3364
Assay Plates – Antimicrobial
Non-binding surface NBS 384w Corning 3640
Assay Plates – Cytotoxicity
Tissue culture treated Black/Clear bottom 384w Corning 3712
Assay Plates - Haemolysis PP-Haem Corning 3657 […]
Growth media - bacteria CAMHB Bacto Laboratories 212322
Culture agar - fungi YPD Becton Dickinson 242720
Growth media - fungi YNB Becton Dickinson 233520
Resazurin Sigma-Aldrich R7017
Dulbecco's Modified Eagle Medium DMEM Life Technologies 11995-073
Foetal Bovine Serum FBS Bovogen FFBS-500
0.9% NaCl Saline Baxter AHF7124
Sample Name Sample ID MW Conc. Solvent Source […]

[2] = test system: Staphylococcus aureus NCTC 13373 (mecA-positive; methicillin-resistant); assay: In vitro antibacterial activity, MIC (UCL School of Pharmacy assay), MRSA; assay type: cell-based; conditions: Staphylococcus aureus
Outline: (§1)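 MIC determined over 32–0.03 μg/mL in 2-fold steps, with at most 2% DMSO, in isosensitest broth. Organisms were suspended in PBS to A600 0.1 (about 1 × 10^8 CFU/mL), diluted 1:100 and inoculated; vancomycin served as QC compound.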

[3] = test system: S. aureus ATCC 25923 (methicillin-susceptible); assay: In vitro antibacterial activity, MIC (UCL), MSSA; assay type: cell-based, Staphylococcus aureus; conditions: Staphylococcus aureus
Outline: as §1

[4] = test system: Enterococcus faecalis ATCC 51299 (vanA-positive; vancomycin-resistant); assay: In vitro antibacterial activity, MIC (UCL), VRE; assay type: cell-based
Outline: as §1

[5] = test system: MRC-5SV2 (human lung fibroblast cell line); assay: Toxicity against MRC-5SV2; assay type: cell-based
Method: (§2) ADME and toxicity for compounds were measured according to procedures outlined in the manuscript submitted in parallel to this one;2 other procedures were used for those compounds analysed by Monash University (in vitro ADME) or UCL (toxicity), both described in the main

[6] = test system: PMM (primary mouse macrophages); assay: Toxicity against PMM; assay type: cell-based
Method: as §2

[7] = HEK293 toxicity, 96-well dose-response (UCL; MTT or resazurin, with or without recovery); assay type: cell-based, human; conditions: human, HEK293 cells; for Dmax spread between recovery and non-recovery conditions at 24 h, 32 μg/mL: read-out: spread of Dmax values comparing recovery and non-recovery conditions
Method: The importance of balancing potency vs MRSA and cytotoxicity led us to examine a subset of compounds more thoroughly for toxicity against human embryonic kidney cell line HEK293. […] Dmax is a parameter that quantifies toxicity at the highest tested concentration (32 μg/mL for all compounds), calculated as reciprocal percentage of viable cells (100 – viability%), where cells either were allowed to recover or viability was measured immediately after treatment. […] Our efforts focused on trying to replicate the original toxicity experiments (by CO-ADD) with tamoxifen using a protocol modified for use with 96-well plates. Given the variability of protocols and results in the literature,[28] it was important to compare with a standard protocol we have reliably used in our own laboratories.[29]−[33] […] Truly “non-toxic” compounds might be expected to show Dmax < 50% for all experiment variations, e.g., 861. […] A large spread of Dmax values comparing recovery and non-recovery conditions larger than 20% is perhaps indicative of a mechanism of toxicity that persists beyond exposure, i.e., cytotoxic compounds that continue to induce toxicity as cells recover and restart dividing, for example, compounds 865, 870, 871, 980, and 981. […] This variability could be driven by interference of the compounds with the fluorescence readout or resorufin build-up as previously described.[27]
HEK293 cells (ATCC, UK) at passage 32 were a kind gift from Dr. Ben Allsop from the Translational Research Office at University College London. Cells were tested for mycoplasma using a MycoAlert Detection Kit (Lonza, Switzerland) as per manufacturer instructions, frozen stocks were stored in liquid nitrogen, and cells were re-tested whenever a new aliquot was thawed.
Cells were maintained in DMEM (Sigma-Aldrich, UK) supplemented with 10% heat-inactivated FBS (Sigma-Aldrich, UK), 1% GlutaMax (ThermoFisher, UK), and 1% sodium pyruvate (Lonza, UK) without antibiotics in an incubator at 37 °C and 5% CO2. Media was changed every 2 days, and cells were passaged every 3–4 days at a subcultivation ratio of 1:10, by detaching the cells with phenol-free TrypLE Express (ThermoFisher, UK), after washing with HBSS Ca^2+/Mg^2+ (ThermoFisher, UK). Up to 55 passages were used throughout the experiments.
(a) Cell seeding: At subculture, a dilute solution of cells was counted using Trypan Blue (Sigma-Aldrich, UK) and a hemocytometer. Cells were further diluted to 7000 or 50 000 cells/mL for experiments.
For recovery experiments, 700 cells (100 μL) were seeded in 96-well plates and incubated for 48 h while cells reached exponential phase.
For non-recovery experiments, 5000 cells (100 μL) were seeded in 96-well plates and incubated for 48 h while cells reached confluence. This is the same number of cells as per the CO-ADD protocol where 384-well plates were used, but we extended the growth time to 48 h to produce a similar confluency.
Stock solutions were diluted 100 times (to 1% DMSO) to 32 μg/mL in full medium (vortexed briefly) and then serially diluted using a digital pipet (Explorer, Eppendorf, Germany) at a dilution factor of 2 to a final concentration of […].
(c) Dosing experiments: At the specified time after seeding, media was removed from cells, cells were washed with HBSS Ca^2+/Mg^2+ (100 μL), and 100 μL of diluted compounds were added as per Supporting Information - Biology, Figure S4, and incubated for 24 h.
After treatment, solutions were removed, and cells were washed with HBSS Ca^2+/Mg^2+. For non-recovery experiments, viability was determined immediately as described below.
For recovery experiments, fresh media was added to plates (100 μL) and cells were returned to the incubator for another 72 h, after which viability was recorded as described below.
i. MTT assay: 3-[4,5-Dimethylthiazol-2-yl]-2,5-diphenyltetrazolium bromide (MTT) (Sigma-Aldrich, UK) was dissolved in sterile PBS at 5 mg/mL with sonication (20 min), protected from light. […]

Aqueous solubility = assay type: physicochemical; conditions: thermodynamic from solid; NEU; read-out: Aqueous Solubility (NEU)
[8] = Human plasma protein binding (PPB); assay type: in vitro ADME; conditions: human, plasma, human plasma, NEU; read-out: Human PPB (NEU) (converted)
[9] = Human liver microsome intrinsic clearance; assay type: in vitro ADME; conditions: human liver microsomes, NEU
[10] = Rat hepatocyte intrinsic clearance; assay type: in vitro ADME; conditions: rat hepatocytes, NEU

For c1ccc(-c2nc3n(c2-c2ccc4c(c2)CCO4)CCC3)nc1 [OSA_000827], which MIC ([1]; read-out: MRSA MIC (CO-ADD)) is on record?
The MIC was 32 µg/mL (≈ 105 µM).

Which MIC ([1]; read-out: MIC MRSA (CO-ADD)) does the source give for CN[C@H](CC(C)C)C(=O)N[C@H]1C(=O)N[C@@H](CC(N)=O)C(=O)N[C@H]2C(=O)N[C@H]3C(=O)N[C@H](C(=O)N[C@H](C(=O)O)c4cc(O)cc(O)c4-c4cc3ccc4O)[C@H](O)c3ccc(c(Cl)c3)Oc3cc2cc(c3O[C@@H]2O[C@H](CO)[C@@H](O)[C@H](O)[C@H]2O[C@H]2C[C@](C)(N)[C@H](O)[C@H](C)O2)Oc2ccc(cc2Cl)[C@H]1O [Vancomycin - HCl, Vancomycin - HCL, reference compound] here?
The MIC was 1 µg/mL.

Which MIC ([1]; read-out: MRSA MIC (CO-ADD)) does the source give for c1ccc(-c2nc3n(c2-c2ccc4c(c2)OCCO4)CCC3)nc1 [OSA_000819] here?
The MIC was 16 µg/mL (≈ 50.1 µM).

What does the source list for CCN(c1ccc(F)cc1)c1c(-c2ccccn2)nc2ccccn12 [compound 981]?
MIC ([2]; read-out: MRSA MIC): 2 µg/mL (≈ 6.02 µM); MIC ([3]; read-out: MSSA MIC): 2 µg/mL (≈ 6.02 µM); MIC ([4]; read-out: VRE MIC): 8 µg/mL (≈ 24.1 µM); MRC5 TC50 [5]: 1.6 µg/mL; PMM TC50 [6]: 2.7 µg/mL; Dmax spread between recovery and non-recovery conditions at 24 h, 32 μg/mL [7]: > 20%

With c1ccc(-c2nc3n(c2-c2ccc4ccoc4c2)CCC3)nc1 [OSA_000829] as the molecule, how does the MIC ([1]; read-out: MRSA MIC (CO-ADD)) read?
The MIC was 4 µg/mL (≈ 13.3 µM).

For c1ccc(-c2c(-c3ccccn3)nc3n2CCC3)cc1 [compound 870], which MIC ([2]; read-out: MRSA MIC) is on record?
Its MIC is 32 µg/mL (≈ 122 µM).

And the MIC ([4]; read-out: VRE MIC)?
The MIC was over 32 µg/mL.

What about the Dmax spread between recovery and non-recovery conditions at 24 h, 32 μg/mL [7] of the same molecule?
Its Dmax spread between recovery and non-recovery conditions at 24 h, 32 μg/mL is over 20%.

With CSc1ccc(-c2c(-c3ccccn3)nc3n2CCC3)cc1 [OSA_000824] as the molecule, how does the MIC ([1]; read-out: MRSA MIC (CO-ADD)) read?
Its MIC is 4 µg/mL (≈ 13 µM).

For c1cncc(-c2nc3n(c2-c2ccc4c(c2)OCO4)CCC3)c1 [OSA_000816], which MIC ([1]; read-out: MRSA MIC (CO-ADD)) is on record?
The MIC was over 32 µg/mL.

With COc1ccc(-c2c(-c3ccccn3)nc3n2CCC3)cc1OC [OSA_000820] as the molecule, how does the MIC ([2]; UCL, read-out: MRSA MIC (UCL)) read?
The MIC was over 32 µg/mL.

What about the MIC ([3]; read-out: MSSA MIC (UCL)) of the same molecule?
The MIC was over 32 µg/mL.

What about the MIC ([1]; read-out: MRSA MIC (CO-ADD)) of the same molecule?
Its MIC is 32 µg/mL (≈ 99.6 µM).

With c1ccc(-c2c(-c3ccccn3)nc3n2CCC3)cc1 [OSA_000870] as the molecule, how does the MIC ([2]; UCL, read-out: MRSA MIC (UCL)) read?
The MIC was 32 µg/mL (≈ 122 µM).

What about the MIC ([4]; read-out: VRE MIC (UCL)) of the same molecule?
The MIC was over 32 µg/mL.

What about the solubility (Aqueous solubility) of the same molecule?
Its solubility is 179 µM (≈ 46.8 µg/mL).

And the fraction unbound [8]?
Its fraction unbound is 0.15.

What about the “HLM CLint (NEU)” value [9] of the same molecule?
The value was 64 uL/min/mg protein.

And the “Rat Hep CLint (NEU)” value [10]?
The value was 25.9 uL/min/10x6 cells.

And the CC50 at 24 h ([7]; read-out: HEK293 CC50)?
The CC50 at 24 h was 3.6 µg/mL (≈ 13.8 µM).

Which MIC ([1]; read-out: MRSA MIC (CO-ADD)) does the source give for c1cc(-c2nc3n(c2-c2ccc4c(c2)OCO4)CCC3)ccn1 [OSA_000817] here?
The MIC was over 32 µg/mL.
